Laboratory results taken from US20080299109A1, “MECHANISM OF ASTRICYTE-NEURON SIGNALING” (Korea Institute of Science and Technology, priority 2007, published 2008).

What was measured:
NR1/NR2A receptors = target: T1, NR1/NR2A receptors (Homo sapiens, UniProt Q05586+Q12879); test: Glutamate-induced currents in NR1/NR2A transfected HEK 293 cells, perforated patch; format: cell-based; conditions: 30 nM thrombin 30 s, −60 mV and +60 mV
T1 construct: expressed in transfected cells; host or cells: HEK 293 cells
T1 sequence (Q12879 23-1464, other chains not shown): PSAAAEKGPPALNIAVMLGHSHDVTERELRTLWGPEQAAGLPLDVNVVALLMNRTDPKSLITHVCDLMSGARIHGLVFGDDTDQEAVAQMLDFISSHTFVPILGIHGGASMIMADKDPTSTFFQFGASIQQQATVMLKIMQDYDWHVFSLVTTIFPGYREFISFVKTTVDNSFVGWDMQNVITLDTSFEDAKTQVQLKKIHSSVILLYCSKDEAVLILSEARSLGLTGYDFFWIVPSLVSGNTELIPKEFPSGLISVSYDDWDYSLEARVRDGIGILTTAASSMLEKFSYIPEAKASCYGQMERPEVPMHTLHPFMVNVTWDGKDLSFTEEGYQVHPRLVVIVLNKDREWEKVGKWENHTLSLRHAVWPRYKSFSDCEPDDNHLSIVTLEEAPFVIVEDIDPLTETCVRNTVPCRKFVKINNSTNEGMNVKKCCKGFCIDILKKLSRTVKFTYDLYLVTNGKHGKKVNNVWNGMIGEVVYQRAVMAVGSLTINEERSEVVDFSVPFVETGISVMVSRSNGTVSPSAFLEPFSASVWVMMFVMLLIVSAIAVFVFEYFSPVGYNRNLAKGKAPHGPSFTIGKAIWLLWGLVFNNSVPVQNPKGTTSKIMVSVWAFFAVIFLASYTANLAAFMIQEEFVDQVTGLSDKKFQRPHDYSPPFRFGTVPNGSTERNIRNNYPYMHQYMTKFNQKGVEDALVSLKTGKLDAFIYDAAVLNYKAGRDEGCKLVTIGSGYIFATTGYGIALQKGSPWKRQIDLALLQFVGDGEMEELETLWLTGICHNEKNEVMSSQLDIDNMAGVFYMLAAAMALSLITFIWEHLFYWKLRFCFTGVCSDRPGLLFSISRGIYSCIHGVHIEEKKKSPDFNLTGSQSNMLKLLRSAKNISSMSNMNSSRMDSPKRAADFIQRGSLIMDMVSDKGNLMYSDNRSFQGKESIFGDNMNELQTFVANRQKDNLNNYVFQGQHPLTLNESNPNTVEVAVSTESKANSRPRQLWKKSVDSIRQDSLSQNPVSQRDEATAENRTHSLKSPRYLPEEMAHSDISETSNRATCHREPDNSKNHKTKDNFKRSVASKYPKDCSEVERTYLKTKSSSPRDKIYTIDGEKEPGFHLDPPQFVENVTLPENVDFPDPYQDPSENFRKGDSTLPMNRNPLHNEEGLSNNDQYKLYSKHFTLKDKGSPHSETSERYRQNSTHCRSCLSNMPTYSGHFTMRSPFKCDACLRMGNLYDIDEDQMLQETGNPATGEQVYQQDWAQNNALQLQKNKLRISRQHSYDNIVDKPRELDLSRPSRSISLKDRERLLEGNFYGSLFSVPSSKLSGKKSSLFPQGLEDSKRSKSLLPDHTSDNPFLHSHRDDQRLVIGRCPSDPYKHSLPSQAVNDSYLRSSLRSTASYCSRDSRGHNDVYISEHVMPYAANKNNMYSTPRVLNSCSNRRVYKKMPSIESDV
Procedure: Whole-cell perforated-patch recording from cultured cortical neurons or HEK cells under voltage clamp (holding potential −60 mV) was made with an Axopatch 200B amplifier (Axon Instruments, Union City, Calif.). The recording chamber was continually perfused with a recording solution comprised of 150 mM NaCl, 3 mM KCl, 2 mM CaCl2, 5.5 mM glucose, and 10 mM HEPES (pH 7.4 by NaOH; osmolality adjusted to 315-320 mOsm with sucrose). Recording electrodes (4-7 MΩ) were filled with (in mM) 150 mM CsMeSO4, 10 mM NaCl, 0.5 CaCl2, 10 mM HEPES, and 25-50 μg/ml gramicidin D (pH adjusted to 7.3 with CsOH and osmolality adjusted to 310 mOsm with sucrose). It took 20-30 min to achieve acceptable perforation with series resistance ranging from 30-60 MΩ. All electrophysiological data from cultured neurons cells in this study were collected at room temperature (23-26° C.).
The external solution included 0.2 mM MgCl2, 2 mM CaCl2, 100 nM ZnCl2, and 50 μM glycine. […] The response from the same cell is shown after a treatment of 30 nM thrombin for 30 s. […] The peak amplitudes of glutamate-induced currents were compared before and after thrombin treatment at −60 mV and +60 mV holding potentials.

[1] = tested on: NMDA receptor-mediated component of the EPSP; test: Current clamp EPSP recording in CA1 pyramidal cells; format: cell-based, rat; conditions: 30 μM TFLLR, 30 nM thrombin
Procedure: (§1) Young rats (Sprague-Dawley, age P15-P20) or mice (C57/B16, age P14-19) were deeply anesthetized with isoflurane and decapitated. The brain was rapidly removed and submerged in an ice-cold oxygenated artificial cerebrospinal fluid (ACSF) comprised of 130 mM NaCl, 24 mM NaHCO3, 3.5 mM KCl, 1.25 mM NaH2PO4, 1 mM CaCl2,3 mM MgCl2, and 10 mM glucose saturated with 95% O2/5% CO2, at pH 7.4.
The hemisected brain was glued onto the stage of a vibrating microtome (Leica VT1000 S) and sections of 300 μm thickness were cut and stored in an incubation chamber at room temperature for about 1 h before use. […]
Synaptic responses were evoked by applying 0.1 ms current injection (1-100 μA) to a bipolar stimulating electrode placed in the stratum radiatum. Thrombin (Calbiochem) concentration was determined as described by Gingrich et al. (2000) using conversion of 1 U/ml=10 nM. […]
A series of current clamp experiments were carried out to directly measure the effects of PAR1 activation on the NMDA receptor-mediated component of the EPSP recorded in the presence of 1.5 mM Mg^2+. […]

CA1 pyramidal neurons = test: Ca2+ dye imaging of CA1 pyramidal neurons in hippocampal slices; format: cell-based, rat; conditions: thrombin 30 nM, TFLLR 30 μM, trans-ACPD 100 μM, (S)-3,5-dihydroxyphenylglycine 30 μM
Procedure: as §1
The external solution contained 1 μM TTX. Throughout the experiments, −5 mV voltage steps (15 ms duration) were applied at 30 sec intervals from a holding potential of −70 mV to continuously monitor the holding current, series resistance, and membrane input resistance. After entering whole-cell mode, the CA1 pyramidal cells in slices were maintained for 20 min to allow for dye filling before image acquisition using a Princeton Micromax camera.
After the baseline period, TFLLR (30-100 μM) was applied, and images were acquired every 3 sec with a 25 ms exposure to 450-490 nm light for each image. Ca^2+-dependent fluorescence intensity (520 nm) was measured in cell bodies and processes by using Axon Imaging Workbench (v2.2.1) and expressed as ratio image of (F-Fo)/Fo, where Fo is the fluorescence intensity before drug treatment.

thrombin
glutamate-induced current profile before and after thrombin (NR1/NR2A receptors): no change
potentiation of synaptic NMDA component of EPSPs at 34° C. [1]: 120±6%
somatic fluorescence of Ca^2+-sensitive dyes in CA1 pyramidal neurons (CA1 pyramidal neurons): no significant increase
